Results from patent publication US10336702B2, “Pharmaceutically active compounds” (BERGENBIO ASA, priority 2015, dated 2019).

Assays:
[1] = tested on: MDA-MB-231D3H2LN/GFP-Luc mammary carcinoma cells; experiment: Lung metastasis after tail vein injection of TNBC cells; assay type: in vivo, NSG mice; conditions: 25 mg/kg twice a day
Experimental: Mice injected with MDA-MB-231D3H2LN/GFP-Luc mammary carcinoma cells and treated with vehicle or EX67 (25 mg/kg b.i.d.) over the course of 14 days were injected with D-luciferin (150 mg/kg) IP 10 minutes before being imaged. Whole-body imaging was performed on an Optix MX2 Small Animal Molecular Imager to measure the total photon count for each animal±SEM. n=10 for vehicle and n=10 for EX67 group.
The cellular program of epithelial to mesenchymal transition (EMT) is utilized by tumor cells to metastasize. The effect of EX67 on lung metastases was evaluated in a TNBC model.
NSG mice were injected in the tail vein with 500 000 MDA-MB-231D3H2LN/GFP-Luc mammary carcinoma cells. Mice were treated with Vehicle or 25 mg/kg EX67 twice a day. Metastases to the lung were evaluated by in vivo imaging after 3 weeks. Lung metastases were also evaluated macroscopically at the day of culling (see FIG. 14).
After 14 days, lung metastases were detected in 10/10 mice treated with Vehicle and 7/10 mice treated with EX67.

[2] = biological target: T1, Akt2 (Homo sapiens, UniProt P31751); experiment: Akt activation assay (PDK1-mediated activation, LANCE Ultra crosstide TR-FRET), Akt2; assay type: biochemical; conditions: read-out: Biological Assay 1 IC50 (nM) Akt2
T1 construct: unspecified tag, removed (detagged) (cleaved yes); purchased SignalChem and Proteros (Akt2); Merck Millipore (PDK1) 14-452 (PDK1); none given for Akt2
T1 sequence (P31751 whole entry): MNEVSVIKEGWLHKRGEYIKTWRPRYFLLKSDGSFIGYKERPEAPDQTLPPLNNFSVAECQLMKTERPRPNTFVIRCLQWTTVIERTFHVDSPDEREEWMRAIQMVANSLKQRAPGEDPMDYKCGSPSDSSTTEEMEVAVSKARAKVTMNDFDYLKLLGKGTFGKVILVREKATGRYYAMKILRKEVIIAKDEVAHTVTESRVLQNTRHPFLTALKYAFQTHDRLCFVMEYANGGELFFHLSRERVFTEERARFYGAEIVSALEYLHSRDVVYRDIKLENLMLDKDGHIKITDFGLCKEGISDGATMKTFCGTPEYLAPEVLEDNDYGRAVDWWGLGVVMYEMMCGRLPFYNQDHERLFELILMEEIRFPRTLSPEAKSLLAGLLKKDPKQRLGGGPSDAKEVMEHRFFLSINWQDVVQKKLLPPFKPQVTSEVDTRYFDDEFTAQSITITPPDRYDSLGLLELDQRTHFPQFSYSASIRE
Summary of the method: (§1)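 Compound + Akt preinc.; start w/ PDK1 5 nM, DOPS/DOPC 5.5 μM each, PIP3 0.55 μM, ATP 100 μM, Ulight-crosstide 100 nM; HEPES pH 7.5, 10 mM MgCl2, 2 mM DTT, 1% DMSO; 30 min; EDTA stop; Eu-Ab TR-FRET; 4-PL IC50.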

[3] = biological target: T2, Akt3 (Homo sapiens, UniProt Q9Y243); experiment: Akt activation assay (PDK1-mediated activation, LANCE Ultra crosstide TR-FRET), Akt3; assay type: biochemical; conditions: read-out: Biological Assay 1 IC50 (nM) Akt3
T2 construct: unspecified tag, removed (detagged) (cleaved yes); purchased SignalChem and Proteros (Akt3); Merck Millipore (PDK1) 14-452 (PDK1); none given for Akt3
T2 sequence (Q9Y243 whole entry): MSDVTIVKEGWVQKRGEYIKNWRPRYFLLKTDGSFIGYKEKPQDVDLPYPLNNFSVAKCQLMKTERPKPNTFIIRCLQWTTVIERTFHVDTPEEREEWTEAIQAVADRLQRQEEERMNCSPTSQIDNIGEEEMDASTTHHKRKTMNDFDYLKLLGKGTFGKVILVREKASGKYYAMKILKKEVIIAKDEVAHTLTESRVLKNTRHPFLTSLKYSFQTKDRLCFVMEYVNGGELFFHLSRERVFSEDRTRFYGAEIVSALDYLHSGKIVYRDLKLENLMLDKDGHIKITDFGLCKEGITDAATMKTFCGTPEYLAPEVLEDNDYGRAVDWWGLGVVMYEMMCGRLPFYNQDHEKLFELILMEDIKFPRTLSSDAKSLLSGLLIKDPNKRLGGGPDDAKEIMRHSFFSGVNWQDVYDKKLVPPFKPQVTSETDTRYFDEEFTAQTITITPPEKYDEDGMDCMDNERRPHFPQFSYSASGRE
Summary of the method: as §1

[4] = biological target: T3, p-Akt2 in WM115 cells (Homo sapiens, UniProt P31751); experiment: Phospho-Akt cellular SureFire assay, p-Akt2 in WM115 cells; assay type: cell-based; conditions: insulin stimulated, read-out: Biological Assay 2 IC50 (nM) Akt2 WM115
T3 construct: SureFire assays to detect cellular p-Akt1, p-Akt2 and p-Akt3 levels in WM115 cells (Akt2/3) and LNCaP cells (Akt1); endogenous in cells; host or cells: WM115 (ECACC 91061232), insulin-stimulated
T3 sequence (P31751 whole entry): as the sequence (P31751 whole entry) above
Summary of the method: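 WM115 cells in 0.1% FBS medium stimulated 10 min with 100 nM insulin, then exposed to compound for 15 min at 37° C (0.3% DMSO final). Lysates assayed by AlphaScreen with anti-(pThr308)Akt and isoform-specific total Akt2 antibodies; IC50 from 4-parameter fit.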

[5] = biological target: T4, p-Akt1 in LNCaP cells (Homo sapiens, UniProt P31749); experiment: Phospho-Akt cellular SureFire assay, p-Akt1 in LNCaP cells; assay type: cell-based; conditions: read-out: Biological Assay 2 IC50 (nM) Akt1 LNCaP
T4 construct: SureFire assays to detect cellular p-Akt1, p-Akt2 and p-Akt3 levels in WM115 cells (Akt2/3) and LNCaP cells (Akt1); endogenous in cells; host or cells: LNCaP (ECACC 89110211)
T4 sequence (P31749 whole entry): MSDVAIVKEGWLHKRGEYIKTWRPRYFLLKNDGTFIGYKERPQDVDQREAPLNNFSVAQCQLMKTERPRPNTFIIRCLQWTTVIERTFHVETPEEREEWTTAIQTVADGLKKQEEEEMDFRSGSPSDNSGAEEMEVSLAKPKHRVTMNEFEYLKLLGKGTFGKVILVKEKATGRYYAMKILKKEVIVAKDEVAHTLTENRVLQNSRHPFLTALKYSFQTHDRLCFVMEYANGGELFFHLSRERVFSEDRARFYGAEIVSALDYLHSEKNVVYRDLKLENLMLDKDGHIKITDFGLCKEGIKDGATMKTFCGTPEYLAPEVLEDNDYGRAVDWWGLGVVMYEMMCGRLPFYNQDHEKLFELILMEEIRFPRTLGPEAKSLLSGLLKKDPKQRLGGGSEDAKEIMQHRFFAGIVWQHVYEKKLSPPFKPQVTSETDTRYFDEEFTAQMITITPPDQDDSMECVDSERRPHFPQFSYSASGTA
Summary of the method: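 LNCaP cells, 5×10^4/well, seeded overnight, switched to 0.1% FBS medium without insulin stimulation, then compound for 15 min at 37 °C (0.3% DMSO). Lysate p-Akt1 (pThr308) by AlphaScreen SureFire, two 2 h incubations at room temperature; IC50 by 4-parameter fit.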

[6] = biological target: T5, p-Akt3 in WM115 cells (Homo sapiens, UniProt Q9Y243); experiment: Phospho-Akt cellular SureFire assay, p-Akt3 in WM115 cells; assay type: cell-based; conditions: insulin stimulated, read-out: Biological Assay 2 IC50 (nM) Akt3 WM115
T5 construct: SureFire assays to detect cellular p-Akt1, p-Akt2 and p-Akt3 levels in WM115 cells (Akt2/3) and LNCaP cells (Akt1); endogenous in cells; host or cells: WM115 (ECACC 91061232), insulin-stimulated
T5 sequence (Q9Y243 whole entry): as the sequence (Q9Y243 whole entry) above
Summary of the method: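 WM115 cells were serum-reduced to 0.1% FBS, stimulated with 100 nM insulin for 10 min, then exposed to compound (0.3% DMSO) for 15 min at 37 °C. Lysates were assayed for Thr308-phosphorylated Akt3 by AlphaScreen SureFire using an isoform-specific total Akt3 capture antibody. IC50 was derived from a 4-parameter fit.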

[7] = biological target: T6, Akt1 (Homo sapiens, UniProt P31749); experiment: Akt activation assay (PDK1-mediated activation, LANCE Ultra crosstide TR-FRET), Akt1; assay type: biochemical; conditions: read-out: Biological Assay 1 IC50 (nM) Akt1
T6 construct: unspecified tag, removed (detagged) (cleaved yes); purchased SignalChem and Proteros (Akt1); Merck Millipore (PDK1) 14-452 (PDK1); none given for Akt1
T6 sequence (P31749 whole entry): as the sequence (P31749 whole entry) above
Summary of the method: as §1

SMILES	lung metastases [1]	mice with lung metastases detected ([1]; after 14 days, vehicle 10/10)	IC50 [2] [nM]	IC50 [3] [nM]	IC50 [4] [nM]	IC50 [5] [nM]	IC50 [6] [nM]	IC50 [7] [nM]
COC(=O)N(C)[C@H]1CC[C@H](CC(=O)Nc2cc(-c3ccccc3)c(-c3ccc([C@]4(N)C[C@](C)(O)C4)cc3)cn2)CC1 [EX67]	prevented metastases compared to vehicle-treated mice in a sub-set of animals	7/10	–	–	–	–	–	–
CC(C)(N)c1ccc(-c2ncc(NC(=O)C[C@H]3CC[C@H](NC(=O)C4CC4)CC3)cc2-c2ccccc2)cc1 [Example A20, N-(trans-4-(2-((6-(4-(2-aminopropan-2-yl)phenyl)-5-phenylpyridin-3-yl)amino)-2-oxoethyl)cyclohexyl)cyclopropane-carboxamide]	–	–	2300	55	5400	> 30000	200	> 36000
COC(=O)N(C(C)C)[C@H]1CC[C@H](CC(=O)Nc2cc(-c3ccccc3)c(-c3ccc([C@]4(N)C[C@](C)(O)C4)cc3)nn2)CC1 [Example 101, Methyl (trans-4-(2-((6-(4-(trans-1-amino-3-hydroxy-3-methylcyclobutyl)phenyl)-5-phenylpyridazin-3-yl)amino)-2-oxoethyl)cyclohexyl)(isopropyl)carbamate]	–	–	120	7	2600	5900	48	8900
CCC(=O)N(C)[C@H]1CC[C@H](CC(=O)Nc2cc(-c3ccsc3)c(-c3ccc(C4(N)CC4)c(F)c3)nn2)CC1 [Example A101, N-(trans-4-(2-((6-(4-(1-aminocyclopropyl)-3-fluorophenyl)-5-(thiophen-3-yl)pyridazin-3-yl)amino)-2-oxoethyl)cyclohexyl)-N-methylpropionamide]	–	–	11000	140	> 30000	> 30000	350	> 30000
CCOC(=O)N(C)[C@H]1CC[C@H](CC(=O)Nc2cc(-c3ccccc3)c(-c3ccc([C@]4(N)C[C@](C)(O)C4)cc3)nn2)CC1 [Example A80, Ethyl (trans-4-(2-((6-(4-(trans-1-amino-3-hydroxy-3-methylcyclobutyl)phenyl)-5-phenylpyridazin-3-yl)amino)-2-oxoethyl)cyclohexyl)(methyl)carbamate]	–	–	74	4	710	2400	10	2400
CC(=O)N(C)[C@H]1CC[C@H](CC(=O)Nc2cc(-c3ccccc3)c(-c3ccc([C@]4(N)C[C@H](F)C4)cc3)cn2)CC1 [Example A59, N-(5-(4-((1r,3r)-1-amino-3-fluorocyclobutyl)phenyl)-4-phenylpyridin-2-yl)-2-(trans-4-(N-methylacetamido)cyclohexyl)acetamide]	–	–	740	28	8000	9700	250	> 30000
COC(=O)N(C)[C@H]1CC[C@H](CC(=O)Nc2cc(-c3ccsc3)c(-c3ccc(C4(N)CC4)c(F)c3)nn2)CC1 [Example A100, Methyl (trans-4-(2-((6-(4-(1-aminocyclopropyl)-3-fluorophenyl)-5-(thiophen-3-yl)pyridazin-3-yl)amino)-2-oxoethyl)cyclohexyl)(methyl)carbamate]	–	–	> 30000	520	> 30000	> 30000	1400	> 30000
CC(C)C(=O)N(C)[C@H]1CC[C@H](CC(=O)Nc2cc(-c3ccccc3)c(-c3ccc(C(C)(C)N)cc3)nn2)CC1 [Example A85, N-(trans-4-(2-((6-(4-(2-aminopropan-2-yl)phenyl)-5-phenylpyridazin-3-yl)amino)-2-oxoethyl)cyclohexyl)-N-methylisobutyramide]	–	–	3400	74	8800	> 20000	270	> 30000
CN(C(=O)C(F)F)[C@H]1CC[C@H](CC(=O)Nc2cnc(-c3ccc(C(C)(C)N)cc3)c(-c3ccccc3)c2)CC1 [Example A7, N-(trans-4-(2-((6-(4-(2-aminopropan-2-yl)phenyl)-5-phenylpyridin-3-yl)amino)-2-oxoethyl)cyclohexyl)-2,2-difluoro-N-methylacetamide]	–	–	5800	70	7100	> 30000	230	> 30000
CC(C)(N)c1ccc(-c2nnc(NC(=O)C[C@H]3CC[C@H](N4CCOC4=O)CC3)cc2-c2ccccc2)cc1 [Example 65, N-(6-(4-(2-aminopropan-2-yl)phenyl)-5-phenylpyridazin-3-yl)-2-(trans-4-(2-oxooxazolidin-3-yl)cyclohexyl)acetamide]	–	–	4100	61	6500	> 30000	190	> 30000
N[C@]1(c2ccc(-c3nnc(NC(=O)C[C@H]4CC[C@H](N5CCCC5=O)CC4)cc3-c3ccccc3)cc2)C[C@@H](F)C1 [Example 74, N-(6-(4-(trans-1-amino-3-fluorocyclobutyl)phenyl)-5-phenylpyridazin-3-yl)-2-(trans-4-(2-oxopyrrolidin-1-yl)cyclohexyl)acetamide]	–	–	190	4	1700	> 30000	40	> 30000
CCN(C(=O)OC)[C@H]1CC[C@H](CC(=O)Nc2cc(-c3ccccc3)c(-c3ccc([C@]4(N)C[C@](C)(O)C4)cc3)nn2)CC1 [Example 129, Methyl (trans-4-(2-((6-(4-(trans-1-amino-3-hydroxy-3-methylcyclobutyl)phenyl)-5-phenylpyridazin-3-yl)amino)-2-oxoethyl)cyclohexyl) (ethyl)carbamate]	–	–	190	7	620	2000	7	11000
